Reference: ChEMBL document CHEMBL3352133, “Antimalarial chemotherapy: orally curative artemisinin-derived trioxane dimer esters” (Bioorg Med Chem Lett, 2015)
pIC50: −log10 of the molar value.

Assays:
Plasmodium berghei [1] = assay: Antimalarial activity Plasmodium berghei ANKA infected in C57BL/6J mouse assessed as suppression of parasitemia at 6 mg/kg, po administered as single dose combined with 18 mg/kg mefloquine hydrochloride measured on day 3 after innfection; type: functional
Plasmodium berghei [2] = assay: Antimalarial activity Plasmodium berghei ANKA infected in C57BL/6J mouse assessed as mouse survival at 6 mg/kg, po administered as single dose combined with 18 mg/kg mefloquine hydrochloride; type: functional
[3] = Lipophilicity, logP of the compound; type: physicochemical; details: octanol/water
Plasmodium = assay: Antimalarial activity Plasmodium; type: functional
[4] = Stability in pH 2 in acetonitrile and water at 37 degC; type: physicochemical; details: acetonitrile and water at pH 2, pH 2; read-out: Stability (converted)

SMILES | Activity (Plasmodium berghei [1]) | Survival (Plasmodium berghei [2]) | logP ([3]; read-out: logP) | pIC50 (Plasmodium) | logP [3] | half-life [4]
C[C@H]1[C@@H](CC(CO)C[C@H]2O[C@@H]3O[C@@]4(C)CC[C@H]5[C@H](C)CC[C@@H]([C@H]2C)[C@@]35OO4)O[C@@H]2O[C@@]3(C)CC[C@H]4[C@H](C)CC[C@@H]1[C@@]24OO3 (stereo not given in full) | >99.9% | 26 days |  |  |  | 
C[C@H]1[C@@H](CC(COC(=O)c2ccncc2)C[C@H]2O[C@@H]3O[C@@]4(C)CC[C@H]5[C@H](C)CC[C@@H]([C@H]2C)[C@@]35OO4)O[C@@H]2O[C@@]3(C)CC[C@H]4[C@H](C)CC[C@@H]1[C@@]24OO3 | >99.9% | 24.3 days | 7.8 | 8.77 |  | 
C[C@H]1[C@@H](CC(COC(=O)c2ccnc(Cl)c2Cl)C[C@H]2O[C@@H]3O[C@@]4(C)CC[C@H]5[C@H](C)CC[C@@H]([C@H]2C)[C@@]35OO4)O[C@@H]2O[C@@]3(C)CC[C@H]4[C@H](C)CC[C@@H]1[C@@]24OO3 | >99.9% | 26 days |  |  | 9.2 | 
C[C@H]1[C@@H](CC(COC(=O)c2cc(Cl)nc(Cl)c2)C[C@H]2O[C@@H]3O[C@@]4(C)CC[C@H]5[C@H](C)CC[C@@H]([C@H]2C)[C@@]35OO4)O[C@@H]2O[C@@]3(C)CC[C@H]4[C@H](C)CC[C@@H]1[C@@]24OO3 | >99.9% | 25.8 days |  |  | 9.5 | 
Cc1cc(C(=O)OCC(C[C@H]2O[C@@H]3O[C@@]4(C)CC[C@H]5[C@H](C)CC[C@@H]([C@H]2C)[C@@]35OO4)C[C@H]2O[C@@H]3O[C@@]4(C)CC[C@H]5[C@H](C)CC[C@@H]([C@H]2C)[C@@]35OO4)cc(Cl)n1 | >99.9% | 28.5 days |  |  | 9.5 | 
Cc1cc(C(=O)OCC(C[C@H]2O[C@@H]3O[C@@]4(C)CC[C@H]5[C@H](C)CC[C@@H]([C@H]2C)[C@@]35OO4)C[C@H]2O[C@@H]3O[C@@]4(C)CC[C@H]5[C@H](C)CC[C@@H]([C@H]2C)[C@@]35OO4)cc(C)n1 | >99.9% | 25.8 days | 8.1 |  |  | 
C[C@H]1[C@@H](CC(COC(=O)c2cc(F)nc(F)c2)C[C@H]2O[C@@H]3O[C@@]4(C)CC[C@H]5[C@H](C)CC[C@@H]([C@H]2C)[C@@]35OO4)O[C@@H]2O[C@@]3(C)CC[C@H]4[C@H](C)CC[C@@H]1[C@@]24OO3 | >99.9% | 23.5 days | 8.9 |  |  | 
C[C@H]1[C@@H](CC(COC(=O)c2cc(F)cc(F)c2)C[C@H]2O[C@@H]3O[C@@]4(C)CC[C@H]5[C@H](C)CC[C@@H]([C@H]2C)[C@@]35OO4)O[C@@H]2O[C@@]3(C)CC[C@H]4[C@H](C)CC[C@@H]1[C@@]24OO3 | >99.9% | 29 days |  |  | 9.3 | 
C[C@H]1[C@@H](CC(COC(=O)c2cc(Cl)cc(Cl)c2)C[C@H]2O[C@@H]3O[C@@]4(C)CC[C@H]5[C@H](C)CC[C@@H]([C@H]2C)[C@@]35OO4)O[C@@H]2O[C@@]3(C)CC[C@H]4[C@H](C)CC[C@@H]1[C@@]24OO3 | >99.9% | 30 days |  |  | 10.2 | 96 h
C[C@H]1[C@@H](CC(COC(=O)c2ccc(Cl)nc2Cl)C[C@H]2O[C@@H]3O[C@@]4(C)CC[C@H]5[C@H](C)CC[C@@H]([C@H]2C)[C@@]35OO4)O[C@@H]2O[C@@]3(C)CC[C@H]4[C@H](C)CC[C@@H]1[C@@]24OO3 | >99.9% | 30 days |  |  | 9.5 | 96 h
CO[C@H]1O[C@@H]2O[C@@]3(C)CC[C@H]4[C@H](C)CC[C@@H]([C@H]1C)[C@@]24OO3 [ARTEMETHER] | >99.9% | 20.8 days |  |  |  | 
C[C@@H]1CC[C@H]2[C@@H](C)C(=O)O[C@@H]3O[C@@]4(C)CC[C@@H]1[C@]32OO4 [ARTEMISININ] |  |  |  | 8.05 |  | 
